According to PubChem BioAssay AID1259407 (Chemical Carcinogenesis Research Information System (CCRIS), 2018):
Calls of active or inactive are those of the source. How the calls were made is not given here.

Test system: CCRIS mutagenicity, Ames/micronucleus/aberration tests
Assay: CCRIS mutagenicity studies

Measured: mutagenic call

Oc1cccc(O)c1
inactive: End Point: MORPHOLOGICAL TRANSFORMATION, Test System: SYRIAN HAMSTER EMBRYO CELLS (SHE) inactive; negative | End Point: MORPHOLOGICAL TRANSFORMATION, Test System: SYRIAN HAMSTER EMBRYO CELLS (SHE), Metabolic Activation: NONE inactive; negative | Test System: AMES SALMONELLA TYPHIMURIUM, Strain/Indicator: TA97, Metabolic Activation: NONE, Method: PREINCUBATION inactive; negative | Test System: AMES SALMONELLA TYPHIMURIUM, Strain/Indicator: TA97, Metabolic Activation: RAT, LIVER, S-9, PHENOBARBITAL, Method: PREINCUBATION inactive; negative | Test System: AMES SALMONELLA TYPHIMURIUM, Strain/Indicator: TA98, Metabolic Activation: HAMSTER, LIVER, S-9, AROCLOR 1254 (10%), Method: PREINCUBATION inactive; negative | Test System: AMES SALMONELLA TYPHIMURIUM, Strain/Indicator: TA98, Metabolic Activation: NONE inactive; negative | Test System: AMES SALMONELLA TYPHIMURIUM, Strain/Indicator: TA98, Metabolic Activation: NONE, Method: PREINCUBATION inactive; negative | Test System: AMES SALMONELLA TYPHIMURIUM, Strain/Indicator: TA98, Metabolic Activation: RAT, LIVER, S-9, AROCLOR 1254 (10%), Method: PREINCUBATION inactive; negative | Test System: AMES SALMONELLA TYPHIMURIUM, Strain/Indicator: TA98, Metabolic Activation: RAT, LIVER, S-9, PHENOBARBITAL, Method: PREINCUBATION inactive; negative | Test System: AMES SALMONELLA TYPHIMURIUM, Strain/Indicator: TA98, Metabolic Activation: RAT, LIVER, S-9, SODIUM PHENOBARBITAL AND 5,6-BENZOFLAVONE, Method: PREINCUBATION inactive; negative | Test System: AMES SALMONELLA TYPHIMURIUM, Strain/Indicator: TA98, Metabolic Activation: S-9 inactive; negative | Test System: AMES SALMONELLA TYPHIMURIUM, Strain/Indicator: TA100, Metabolic Activation: HAMSTER, LIVER, S-9, AROCLOR 1254 (10%), Method: PREINCUBATION inactive; negative | Test System: AMES SALMONELLA TYPHIMURIUM, Strain/Indicator: TA100, Metabolic Activation: NONE, Method: PREINCUBATION inactive; negative | Test System: AMES SALMONELLA TYPHIMURIUM, Strain/Indicator: TA100, Metabolic Activation: RAT, LIVER, S-9, AROCLOR 1254 (10%), Method: PREINCUBATION inactive; negative | Test System: AMES SALMONELLA TYPHIMURIUM, Strain/Indicator: TA100, Metabolic Activation: RAT, LIVER, S-9, SODIUM PHENOBARBITAL AND 5,6-BENZOFLAVONE, Method: PREINCUBATION inactive; negative | Test System: AMES SALMONELLA TYPHIMURIUM, Strain/Indicator: TA102, Metabolic Activation: NONE, Method: PREINCUBATION inactive; negative | Test System: AMES SALMONELLA TYPHIMURIUM, Strain/Indicator: TA102, Metabolic Activation: RAT, LIVER, S-9, SODIUM PHENOBARBITAL AND 5,6-BENZOFLAVONE, Method: PREINCUBATION inactive; negative | Test System: AMES SALMONELLA TYPHIMURIUM, Strain/Indicator: TA104, Metabolic Activation: NONE, Method: PREINCUBATION inactive; negative | Test System: AMES SALMONELLA TYPHIMURIUM, Strain/Indicator: TA104, Metabolic Activation: RAT, LIVER, S-9, SODIUM PHENOBARBITAL AND 5,6-BENZOFLAVONE, Method: PREINCUBATION inactive; negative | Test System: AMES SALMONELLA TYPHIMURIUM, Strain/Indicator: TA1535, Metabolic Activation: HAMSTER, LIVER, S-9, AROCLOR 1254 (10%), Method: PREINCUBATION inactive; negative | Test System: AMES SALMONELLA TYPHIMURIUM, Strain/Indicator: TA1535, Metabolic Activation: NONE, Method: PREINCUBATION inactive; negative | Test System: AMES SALMONELLA TYPHIMURIUM, Strain/Indicator: TA1535, Metabolic Activation: RAT, LIVER, S-9, AROCLOR 1254 (10%), Method: PREINCUBATION inactive; negative | Test System: AMES SALMONELLA TYPHIMURIUM, Strain/Indicator: TA1535, Metabolic Activation: RAT, LIVER, S-9, SODIUM PHENOBARBITAL AND 5,6-BENZOFLAVONE, Method: PREINCUBATION inactive; negative | Test System: AMES SALMONELLA TYPHIMURIUM, Strain/Indicator: TA1537, Metabolic Activation: HAMSTER, LIVER, S-9, AROCLOR 1254 (10%), Method: PREINCUBATION inactive; negative | Test System: AMES SALMONELLA TYPHIMURIUM, Strain/Indicator: TA1537, Metabolic Activation: NONE, Method: PREINCUBATION inactive; negative | Test System: AMES SALMONELLA TYPHIMURIUM, Strain/Indicator: TA1537, Metabolic Activation: RAT, LIVER, S-9, AROCLOR 1254 (10%), Method: PREINCUBATION inactive; negative | Test System: AMES SALMONELLA TYPHIMURIUM, Strain/Indicator: TA1537, Metabolic Activation: RAT, LIVER, S-9, SODIUM PHENOBARBITAL AND 5,6-BENZOFLAVONE, Method: PREINCUBATION inactive; negative | Test System: E. COLI, Strain/Indicator: WP2UVRA/PKM101, Metabolic Activation: NONE, Method: PREINCUBATION inactive; negative | Test System: E. COLI, Strain/Indicator: WP2UVRA/PKM101, Metabolic Activation: RAT, LIVER, S-9, SODIUM PHENOBARBITAL AND 5,6-BENZOFLAVONE, Method: PREINCUBATION inactive; negative | Test System: E. COLI, Strain/Indicator: WP2UVRA, Metabolic Activation: NONE, Method: PREINCUBATION inactive; negative | Test System: E. COLI, Strain/Indicator: WP2UVRA, Metabolic Activation: RAT, LIVER, S-9, SODIUM PHENOBARBITAL AND 5,6-BENZOFLAVONE, Method: PREINCUBATION inactive; negative
active: End Point: In vitro chromosomal aberrations, Test System: Chinese hamster lung (CHL/IU) cells, Metabolic Activation: Rat, Liver, S9, Phenobarbital and 5,6-benzoflavone active; positive (structural changes and ploidy). weak response. | Test System: AMES SALMONELLA TYPHIMURIUM, Strain/Indicator: TA98, Metabolic Activation: RAT, LIVER, S-9, Method: STANDARD PLATE active; positive | Test System: E. COLI, Strain/Indicator: B/R WP2 (TRP-HCR-), Metabolic Activation: RAT, LIVER, S-9, Method: STANDARD PLATE active; positive | Test System: MOUSE LYMPHOMA, Strain/Indicator: L5178Y (TK+/TK-), Metabolic Activation: NONE, Method: SUSPENSION/PLATE active; positive
